This is an account of results in publication PMC11310079, “Commensal production of a broad-spectrum and short-lived antimicrobial peptide polyene eliminates nasal Staphylococcus aureus” (Nature Microbiology, 2023).

For data set [1] the following is noted: cited from earlier work. The text has this:
To our knowledge, the combination of peptide–polyene–tetramic acid moieties is unique to epifadin. […] In contrast to the ionophore act ...

A further data set concerns S. aureus USA300 LAC. Kind of data set: Stability analysis of epifadin (bioactivity by agar diffusion after incubation). The format is physicochemical, Staphylococcus aureus. To be noted: lugdunin 70 µg/ml in TSB, 37 °C, pH 7, light, r4-r10 = 0-6 h. On the procedure: Fig. 2 High instability of epifadin under in vivo-like conditions. S. epidermidis IVK83 culture supernatants containing epifadin were precipitated with HCl, freeze-dried and extracted with DMSO. This extract was diluted in TSB, incubated for the indicated time periods with constant shaking under the respective conditions and subsequently tested for activity towards S. aureus USA300 LAC. a, Stability of epifadin compared with other antibacterial agents under standard laboratory conditions (37 °C, pH 7, laboratory light exposure). b, In vivo-like conditions with laboratory light exposure at pH 7 (nasal condition) or pH 5.5 (skin condition) and reduced temperatures; incubation of epifadin under exclusion from light enabled further purification and activity determination. Conditions at pH 7, 37 °C and 0 h were used as reference for 100% stability. Data shown represent the mean ± s.d. of three independent experiments. Source data
The effect of different incubation conditions on the bioactivity of epifadin was analysed by agar diffusion assays on lawns of the sensitive indicator strain S. aureus USA300 LAC. To this end, liquid TSA was inoculated with an overnight culture of USA300 at an OD600 of 0.00125. After solidification of the agar, a cork borer was used to punch wells into the agar with 5 mm diameter. TSB media with 50 mM sodium citrate (pH 5 and 6) or 50 mM tris(hydroxymethyl)aminomethane (pH 8 and 9) were prepared. Epifadin-containing precipitate was dissolved in DMSO (12 mg ml^−1), and insoluble particles were removed by centrifugation. The supernatant was added to the prepared TSB media at a final concentration of 750 µg precipitate per millilitre (37.5 µg in 50 µl). Media were incubated for 6 h at 21 °C, 30 °C or 37 °C with or without laboratory light exposure and constant shaking at 500 rpm in a thermomixer (Eppendorf). As controls, 70 µg ml^−1 (3.5 µg in 50 µl) lugdunin, 24 µg ml^−1 (1.2 µg in 50 µl) gallidermin and 100 µg ml^−1 (5 µg in 50 µl) nisin were used. At different timepoints, 50 µl of each sample was pipetted into the wells of the agar plates. After incubation at 37 °C overnight, zones of inhibition were analysed with ImageJ software (version 1.8.0_112).
(In general: Agar diffusion results depend on both activity and mobility in agar.)

In another data set the test system is S. aureus USA300 JE2. Kind of data set: Determination of the IC (miniaturized agar diffusion assay). To be noted: agar diffusion on inoculated TSA, 24 h 37 °C dark; IC from inhibited agar volume. The format is cell-based, Staphylococcus aureus. On the procedure:
(§1) Instead, a miniaturized assay was developed. Molten TSA, kept below 42 °C, was inoculated with different test strains at an OD600 of 0.00125. Then, 17.5 ml was poured into Petri dishes, resulting in agar layers of ~3.16 mm thickness. After solidification, a cork borer was used to punch wells of 4-mm diameter into the agar. Thirty-five microlitres of purified epifadin in DMSO–PA (2.4 µg, 1.2 µg, 0.6 µg, 0.3 µg, 0.15 µg and 0.075 µg) was pipetted into the wells, and agar plates were incubated for 24 h at 37 °C in the dark. Diameters of the zones of inhibition were measured and the volume containing the inhibitory epifadin concentration was calculated, using the following formula for cylinder volume: Vc=πxr^2xhVc=cylindervolumeVi=πrz2xha−(πrw2xha)Vi=inhibitedvolumerz2=radius(diameter/2)zoneofinhibitionrw2=radius(diameter/2)ofwellha=heightofagar
(§2) The volume of agar showing inhibition of the test strain was then correlated with the included amount of epifadin, and the epifadin concentration necessary to inhibit test strain growth in a 1 ml volume was calculated to yield IC values. If, for example, 2.4 µg of epifadin lead to an inhibited volume of 480 µl, to inhibit a volume of 1 ml, 5 µg epifadin is needed, which corresponds to an IC of 5 μg ml^−1. These calculations were conducted for the lowest amount of epifadin that led to a zone of inhibition to minimize the necessary epifadin amounts and the calculation error due to the gradient within the inhibition zone. As a control, the same assay was used to determine the IC for vancomycin, daptomycin and lugdunin under these conditions.

In another data set the test system is S. aureus USA300LAC. The data set is described as above. The format is cell-based, Staphylococcus aureus. The settings on record: agar diffusion on inoculated TSA, 35 µl in 4-mm wells, 24 h 37 °C dark; IC from inhibited agar volume at lowest active amount. The procedure:
as §1, §2

Take `CCCCCCC/C=C/C(=O)N1C(O)=C(C(C)=O)C(=O)[C@H]1CC(C)C` [reutericyclin A]: the antimicrobial activity result in data set [1] is listed as “antimicrobial”.
Take Lugdunin: the “stability (remaining antimicrobial activity, 0 h = 100%)” value was determined as 83.34% in the data set on S. aureus USA300 LAC (experiment 1 of 3, after 1 h incubation); 75.95% in the data set with S. aureus USA300 LAC (experiment 1 of 3, after 2 h incubation); 68.18% in the data set on S. aureus USA300 LAC (experiment 1 of 3, after 3 h incubation); 72.38% in the data set with S. aureus USA300 LAC (experiment 1 of 3, after 4 h incubation); 65.52% in the data set with S. aureus USA300 LAC (experiment 1 of 3, after 5 h incubation); 61.66% in the data set on S. aureus USA300 LAC (experiment 1 of 3, after 6 h incubation). Also, the “stability (remaining antimicrobial activity, 0 h = 100%)” value in the data set with S. aureus USA300 LAC (experiment 2 of 3, after 1 h incubation) is given as 81.19%; in the data set on S. aureus USA300 LAC (experiment 2 of 3, after 2 h incubation), 74.91%; in the data set on S. aureus USA300 LAC (experiment 2 of 3, after 3 h incubation), 69.51%; with S. aureus USA300 LAC (experiment 2 of 3, after 4 h incubation), 68.58%; in the data set with S. aureus USA300 LAC (experiment 2 of 3, after 5 h incubation), 65.27%; with S. aureus USA300 LAC (experiment 2 of 3, after 6 h incubation), 69.75%. In addition, the “stability (remaining antimicrobial activity, 0 h = 100%)” value with S. aureus USA300 LAC (experiment 3 of 3, after 1 h incubation) stood at 81.54%; with S. aureus USA300 LAC (experiment 3 of 3, after 2 h incubation) it was 76.22%; in the data set with S. aureus USA300 LAC (experiment 3 of 3, after 3 h incubation) it was 72.30%; in the data set with S. aureus USA300 LAC (experiment 3 of 3, after 4 h incubation), 70.84%; with S. aureus USA300 LAC (experiment 3 of 3, after 5 h incubation), 67.83%; in the data set with S. aureus USA300 LAC (experiment 3 of 3, after 6 h incubation), 62.11%. The “IC*” value in the data set on S. aureus USA300 JE2 was determined as 8.5 µg/mL; with S. aureus USA300LAC, 7.3 µg/mL.
`CC(=O)C1=C(O)[C@@H](CC(C)C)NC1=O` [mutanocyclin]: the antimicrobial activity result in data set [1] is listed as “not antimicrobial”.
